These results are taken from patent publication US4228167A, “Diuretic and vasodilating tricyclic quinazolines” (Sumitomo Chemical Company, Limited, priority 1977, dated 1980).

Experiment [1] is described as follows: Diuretic activity (urinary excretion) in rats. It counts as in vivo. The conditions noted are these: standard dose of 10 mg/kg; for Urinary excretion K^30: potassium, control 0.53; for Urinary excretion Na^+ /K^ +: ratio, control 2.9; for Urinary excretion Na^30: sodium, control 1.5; for Urinary excretion: urine volume, control 9.5. On the procedure:
Diuretic activity was evaluated according to the method described by W. L. Lipschits et al., J. Pharmacol. Exp. Ther., 79, 97 (1943). The results in rats are shown in Table I, where the data for a standard dose of 10 mg/kg is listed for the purpose of comparison.

The subject of experiment [2] is rat aortic strips. The experiment is described as follows: Vasodilating activity: relaxation of isolated rat aortic strips contracted with potassium chloride. Particulars: read-out: Median effective concentration (ED50). The protocol:
Vasodilating activity was examined by use of the method described by N. Tada et al., J. Pharmacol. Exp. Ther., 191, 139 (1974). The rat aortic strips were isolated and contracted using 30 mM of potassium chloride. Dose dependent relaxation in the aortic strips was observed by adding the test compounds. At the end of each experiment, papaverine in a concentration of 3×10^-5 g/ml was added and the relaxation induced was taken as 100%. Median effective concentration (ED50) was obtained from dose response curves.

The mark [3] stands for this setting: rat aortic strips contracted with 30 mM potassium chloride, relaxation by papaverine 3×10^-5 g/ml taken as 100%.

Converted amounts (≈) assume the structure as drawn. Read-outs that look alike come from different tables or passages of the source.

In the case of `CCCCN1C2=NCCN2C(c2ccccc2)c2cc(Cl)ccc21` (stereo not shown) [7-Cl, H, H, n-Bu, H, CH2 CH2, 7-chloro-10-(n-butyl)-5-phenyl-2,3,5,10-tetrahydroimidazo[2,1-b]quinazoline], in experiment [1], the “Urinary excretion K^30” value was 0.86 mequiv/kg, the “Urinary excretion Na^+ /K^ +” value worked out at 5.3, the “Urinary excretion Na^30” value is reported as 4.5 mequiv/kg and the Urinary excretion was 31.1 mL/kg.
`COc1ccc2c(c1)C(c1ccccc1)N1CCN=C1N2CC1CC1` (stereo not shown) [7-MeO, H, H, [drawing 6], H, CH2 CH2, 10-Cyclopropylmethyl-7-methoxy-5-phenyl-2,3,5,10-tetrahydroimidazo[2,1-b]quinazoline]: the EC50 in experiment [2] (setting [3]) was found to be 1 mg/L (≈ 3 µM).
For the compound `CN1C2=NCCCN2C(c2ccccc2)c2cc(Cl)ccc21` (stereo not shown) [8-Cl, H, H, Me, H, CH2 CH2 CH2, 8-chloro-11-methyl-6-phenyl-3,4,6,11-tetrahydro-2H-pyrimido[2,1-b]quinazoline], in experiment [1], the “Urinary excretion K^30” value is listed as 0.97 mequiv/kg, the “Urinary excretion Na^+ /K^ +” value is 5.6, the “Urinary excretion Na^30” value came to 5.6 mequiv/kg and the Urinary excretion worked out at 38.3 mL/kg.
For the compound `Clc1ccc2c(c1)N(CC1CC1)C1=NCCN1C2c1ccccc1` (stereo not shown) [8-Cl, H, H, [drawing 3], H, CH2 CH2, 8-Chloro-10-cyclopropylmethyl-5-phenyl-2,3,5,10-tetrahydroimidazo[2,1-b]quinazoline], in experiment [1], the “Urinary excretion K^30” value came out at 0.92 mequiv/kg, the “Urinary excretion Na^+ /K^ +” value stood at 4.0, the “Urinary excretion Na^30” value is 3.7 mequiv/kg and the Urinary excretion stood at 26.8 mL/kg. Further, the EC50 in experiment [2] (setting [3]) is 0.24 mg/L (≈ 0.71 µM).
Consider `CCCCN1C2=NCCCN2C(c2ccccc2)c2cc(Cl)ccc21` (stereo not shown) [8-Cl, H, H, n-Bu, H, CH2 CH2 CH2, 8-Chloro-11-(n-butyl)-6-phenyl-3,4,6,11-tetrahydro-2H-pyrimido[2,1-b]quinazoline], for which the EC50 in experiment [2] (setting [3]) was 0.27 mg/L (≈ 0.763 µM).
In the case of `Clc1ccc2c(c1)N(CC1CC1)C1=NCCCN1C2c1ccccc1` (stereo not shown) [9-Cl, H, H, [drawing 4], H, CH2 CH2 CH2, 9-Chloro-11-cyclopropylmethyl-6-phenyl-3,4,6,11-tetrahydro-2H-pyrimido[2,1-b]quinazoline], in experiment [1], the “Urinary excretion K^30” value is given as 0.78 mequiv/kg, the “Urinary excretion Na^+ /K^ +” value turned out to be 6.1, the “Urinary excretion Na^30” value worked out at 4.7 mequiv/kg and the Urinary excretion was 34.3 mL/kg. Besides, the EC50 in experiment [2] (setting [3]) turned out to be 0.29 mg/L (≈ 0.824 µM).
For the compound `CN1C2=NCCN2C(O)(c2ccc(Cl)cc2)c2ccccc21` (stereo not shown) [H, H, p-Cl, Me, OH, CH2 CH2, 5-(p-chlorophenyl)-5-hydroxy-10-methyl-2,3,5,10-tetrahydroimidazo[2,1-b]quinazoline], in experiment [1], the “Urinary excretion K^30” value was found to be 0.84 mequiv/kg, the “Urinary excretion Na^+ /K^ +” value came out at 5.2, the “Urinary excretion Na^30” value came to 4.4 mequiv/kg and the Urinary excretion turned out to be 32.6 mL/kg.
On to `COc1ccc(Cc2nccc3cc(OC)c(OC)cc23)cc1OC` [Papaverine, reference compound], for which the EC50 in experiment [2] (Rattus norvegicus) came to 4.6 mg/L (≈ 13.6 µM).
